This is an account of results in patent publication US10330673B2, “Fluorescent chemical sensor for biological amines” (The Curators of the University of Missouri, priority 2013, dated 2019).

The test system of assay [1] is EP-enriched chromaffin cells. The experiment in a line: Fixed-cell staining with I-2 and anti-PNMT antibody, EP-enriched cells. The assay is classed as cell-based, bovine. Particulars: 585 nm = anti-PNMT/Cy3, 525 nm = I-2 (1 μM), ImageJ. An excerpt: To further validate the selectivity of the inventive sensor, the inventive detection method is validated with an established procedure in which phenylethanolamine N-methyltransferase (PNMT) is stained with an antibody and visualized with a Cy3-conjugated secondary antibody. It has been shown that epinephrine-enriched cell populations gave the highest level of PNMT staining, while norepinephrine-enriched populations gave lower staining (ca. 20% of that with epinephrine-enriched cells). For this experiment, three populations of chromaffin cells (norepinephrine-enriched, epin ephrine-enriched, and mixed) were stained with Compound I-2 and fixed in 4% paraformaldehyde. The fixed cells were stained with the anti-PNMT and secondary antibodies.
Chromaffin cells were isolated from bovine adrenal glands as previously described. […]
NE-enriched cells, EP-enriched cells and mixed cells stained with I-2 (1 μM) and plated on 0.0025% Poly (1-lysine) coated cover slips, after three washed with pre-warmed phosphate-buffered saline (pH=7.4, PBS), were fixed in 4% paraformaldehyde (Sigma, St. Louis, Mo., USA) in PBS for 60 min at room temperature (RT), followed by 6 min in methanol chilled to −20° C. […] After three washed in PBS, bound antibody was detected using Cy™3-conjugated AffiniPure Donkey Anti-Rabbit (1:150 dilution, Jackson ImmunoResearch Laboratories, Inc, Nest Grove, Pa., 19390). […]

For assay [2], the system named is epinephrine-enriched chromaffin cells. The experiment in a line: Live-cell confocal imaging with Compound I-2, epinephrine-enriched cells. Type of assay: cell-based, bovine. Particulars: 0.1 μM. The method, then: Chromaffin cells were separated into norepinephrine-enriched and epinephrine-enriched fractions by centrifugation on a Percoll gradient. Both populations were independently incubated with a 0.1 μM solution of Compound I-2 at 37° C. for 30 minutes and then washed to remove excess sensor and plated.
Chromaffin cells were isolated from bovine adrenal glands as previously described. Following centrifugation at 18° C. at 13,000 rpm for 45 minutes in the Percoll gradient, chromaffin cells separate into fractions enriched with either epinephrine-enriched cells (denser band) and norepinephrine-enriched cells (lighter band). Moro, M. A.; Lépez, M. G.; Gandía, L.; Michelena, P.; Garcia, G. Separation and culture of living adrenaline- and noradrenaline-containing cells from bovine adrenal medullae. Anal. Biochem. 1990, 185, 243-248. Over 90% of the catecholamine content found in the cells in the denser fraction are epinephrine, whereas approximately 67% of the catecholamine content in the lighter fraction are norepinephrine. Liu, X.; Barizuddin, S.; Shin, W.; Mathai, C. J.; Gangopadhyay, S.; Gillis, K. D. Microwell device for targeting single cells to electrochemical microelectrodes for high-throughput amperometric detection of quantal exocytosis. Anal. Chem. 2011, 83, 2445-2451. The two cell fractions were collected from the Percoll gradient with careful pipetting and separately cultured. […]

A short description of assay [3]: Fluorescence titration of sensor with lysine. Type of assay: binding. Conditions: amine guest lysine.
Assay [4] is described as follows: Fluorescence titration of sensor with dopamine. The assay is classed as binding. Conditions: for Ka: pH 5.0, 37° C. The method, then: Fluorescence spectra were recorded on a Shimadzu RF-5301 PC spectrofluorometer at 37° C. A 1 mg/mL stock solution of I-2 in DMSO was prepared. A stock solution of I-2 in buffer (1×10^−5 M, 25 mM HEPES, 50 mM Na2S2O3, pH=5.0) was prepared. Norepinephrine, dopamine, epinephrine, and glutamate stock solutions were prepared by separately dissolving the analytes at the concentration to be used in the titration with the buffered stock solution of I-2 (thus avoiding dilution of I-2 during the experiment). I-2 was titrated with aliquots of analyte solution. The sensor was excited at 488 nm with slit widths of 5 nm.
Fluorescence spectra were recorded on a Shimadzu RF-5301 PC spectrofluorometer at 37° C. A separate 1 mg/mL stock solution of each coumarin-3-aldehyde derivative in DMSO was prepared. An aqueous stock solution of each derivative (10 μM) in buffer (25 mM HEPES, 50 mM Na2S2O3, pH=5.0) was prepared. Norepinephrine, dopamine, glutamate, and epinephrine stock solutions were prepared by separately dissolving the solid analytes at the concentration to be used in the titration with the buffered stock solutions described above and thus, avoiding dilution of the sensor during the experiment. The benzene-based NS521 derivatives were excited at 488 nm. The thiophene-based derivatives were excited at 515 nm.

[5] abbreviates: Table 2, analyte dopamine, benzene-based compounds I, excited at 488 nm.

As to `CCN(CC)c1ccc2c(-c3ccc(OC)cc3)c(C=O)c(=O)oc2c1` [Compound I-2, 7-diethylamino-3-formyl-4-(4′-methoxyphenyl)coumarin], in assay [1], the “average fluorescence intensity at 585 nm vs. 525, epinephrine-enriched relative to norepinephrine-enriched cells” value worked out at 6 times. Further, the “cell fluorescence, confocal microscopy” value is “marginal fluorescence” in assay [2] (37° C., 30 minutes, 488 nm excitation (bound sensor)) and “No significant fluorescence” in assay [2] (excited at 440 nm (unbound sensor)). Besides, the Ka in assay [3] (fluorescence spectroscopy, λex = 488 nm, λem = 521 nm) is 11 M⁻¹; in assay [4] (setting [5]) it was 112.10 M⁻¹; in assay [4] (amine guest dopamine, fluorescence spectroscopy, λex = 488 nm, λem = 521 nm) it was 112 M⁻¹. Besides, the “Isat/Io (λex = 488 nm)” value is 15.1 in assay [3] (intensity at saturation from fit to binding isotherm) and 3.0 in assay [4] (amine guest dopamine, intensity at saturation from fit to binding isotherm). Moreover, the F.E. in assay [4] (setting [5]) was 2.98.
